Measured values from patent US12465648B2, “Heterobifunctional compounds as degraders of HPK1” (ICAHN SCHOOL OF MEDICINE AT MOUNT SINAI, priority 2019, dated 2025).

Experiments:
primary murine T cells [1] = test: Proliferation of primary murine T cells; assay type: cell-based, mouse
Protocol: (§1) EXAMPLE 348. Several compounds according to the present invention employing the indolin-2-one HPK1 binding base, (which henceforth shall be referred to as the HC58 series, the HC65 series and the HC75 series) were assessed on their abilities to degrade HPK1 and produce an elevated IL-2 response profile upon stimulation by anti-CD3- and anti-CD28-mAb-mediated (CD3XCD28) stimulation (FIGS. 1-4). The elevated IL-2 response profile induced by TCR engagement after exposure to HC58 series of HPK1 degraders is shown in FIG. 1. […] A select sub-set of the lead HPK1 degraders from the HC58 series were further characterized to determine whether they could degrade primary mouse T cells.

primary GFP+ Tregs = test: IL-2 production by primary GFP+ Tregs in response to TCR engagement; assay type: cell-based; conditions: stimulation by TCR engagement (FIG. 7)
primary murine T cells [2] = test: IL-2 production by primary murine T cells; assay type: cell-based, mouse
Protocol: as §1

CD4+eGFP+ Tregs = test: IL-2 production by regulatory T cells (Tregs) on CD3XCD28 stimulation (IL-2 ELISA); assay type: cell-based, mouse; conditions: compared with HPK1-/- Tregs
Source text: EXAMPLE 350. It was observed that HPK1^−/− regulatory T cells (Treg), unlike their wild type counterparts, could readily produce IL-2 in response to CD3XCD28 stimulation. Taking advantage of the FoxP3-driven eGFP reporter mice that express eGFP only in the FoxP3^+ regulatory T cells (Tregs), bonafide Tregs were purified from spleens and lymph nodes by FACS-assisted sorting of CD4^+eGFP^+ Tregs and used as the source of ex vivo functional studies. The ability of the wild type Treg, the HPK1^−/− Tregs and the HC58-78-treated wild type Tregs to produce IL-2 in response to CD3XCD28 stimulation was compared. […] Wild type regulatory T cells could not produce the IL-2 in response to the same stimulation due to the transcriptional repression of the IL-2 locus by the FoxP3 transcription factor (FIG. 7, the white histogram bar).

HPK1 [3] = target: T1, HPK1 (Mus musculus, UniProt P70218); test: HPK1 degradation in primary mouse T cells; assay type: cell-based; conditions: 300 nM
T1 construct: HPK1 degraders could effectively degrade endogenous HPK1 in murine T cells; endogenous in cells; host or cells: primary mouse T cells
T1 sequence (P70218 1-827): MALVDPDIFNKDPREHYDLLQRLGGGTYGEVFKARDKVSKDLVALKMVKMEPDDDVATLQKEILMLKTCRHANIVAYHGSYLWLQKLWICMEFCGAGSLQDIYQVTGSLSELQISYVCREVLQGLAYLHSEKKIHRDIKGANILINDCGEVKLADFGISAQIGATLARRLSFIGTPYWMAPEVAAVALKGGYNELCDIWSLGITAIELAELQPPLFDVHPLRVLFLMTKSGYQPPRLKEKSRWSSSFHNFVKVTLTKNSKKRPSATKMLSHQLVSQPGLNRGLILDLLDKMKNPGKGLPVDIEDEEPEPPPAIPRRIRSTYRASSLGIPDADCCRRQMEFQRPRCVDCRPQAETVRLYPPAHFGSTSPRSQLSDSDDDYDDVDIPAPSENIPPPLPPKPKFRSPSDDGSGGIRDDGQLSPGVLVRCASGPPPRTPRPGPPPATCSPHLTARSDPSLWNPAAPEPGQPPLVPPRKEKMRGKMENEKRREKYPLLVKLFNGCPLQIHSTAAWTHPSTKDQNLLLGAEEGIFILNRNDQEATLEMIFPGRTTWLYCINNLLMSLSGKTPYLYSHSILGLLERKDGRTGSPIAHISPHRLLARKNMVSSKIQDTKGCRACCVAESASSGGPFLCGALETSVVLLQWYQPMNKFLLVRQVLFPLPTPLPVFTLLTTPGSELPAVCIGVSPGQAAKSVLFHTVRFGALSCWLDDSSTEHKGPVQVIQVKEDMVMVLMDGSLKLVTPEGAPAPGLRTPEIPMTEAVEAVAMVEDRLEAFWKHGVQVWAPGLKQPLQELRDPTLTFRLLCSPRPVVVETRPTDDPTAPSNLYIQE
Protocol: as §1
EXAMPLE 353. HPK1 is expressed in all hematopoietic cells examined to date, including T cells, B cells, dendritic cells and neutrophils. Because the breath of therapeutic approaches might involve the use of Chimeric Antigen Receptor (CAR) T cells, dendritic cells, TCR transgenic T cells and Tumor Infiltrating Lymphocytes (TILs), selected HPK1 degraders were evaluated to determine whether they could degrade HPK1 effectively in some of these cell types. […] Potent degradation of HPK1 by HPK1 degraders was also observed in the human DC1 dendritic cells.

HPK1 [4] = target: T2, HPK1 (Homo sapiens, UniProt Q92918); test: Western blot analysis of endogenous HPK1 level in Jurkat T cells; assay type: cell-based
T2 construct: endogenous in cells; host or cells: Jurkat T cells

human PBMCs = test: Intracellular IFNγ and TNFα staining of human PBMC (FACS); assay type: cell-based; conditions: in combination with blinatumomab
Source text: EXAMPLE 355. One of the mechanisms employed by PBMC to kill their target cells is by releasing IFNγ and TNFα production. These inflammatory cytokines are known have potent cytolytic effects on cancer cells. […] Mediated PBMC killing of the Raji cells is most evident at PBMC:Raji ratio of 5:1 (FIG. 13).
To determine the number of CD19^+ Raji cells killed by human PBMC that were activated by the Blinatumomab-mediated activation, we used CountBright cell counting beads to estimate the number of cells remained after 72 hours of co-culturing of PBMC and Raji. As for the intracellular staining of the TNFα and the IFNγ, the standard para-formaldehyde-based “fix and perm” procedure was used in order to quantitate the amount of intracellular cytokine trapped inside the cells by brefeldin A. FACS analysis of stained cells is performed by BD's LSR II FACS.

T2 sequence (Q92918 whole entry): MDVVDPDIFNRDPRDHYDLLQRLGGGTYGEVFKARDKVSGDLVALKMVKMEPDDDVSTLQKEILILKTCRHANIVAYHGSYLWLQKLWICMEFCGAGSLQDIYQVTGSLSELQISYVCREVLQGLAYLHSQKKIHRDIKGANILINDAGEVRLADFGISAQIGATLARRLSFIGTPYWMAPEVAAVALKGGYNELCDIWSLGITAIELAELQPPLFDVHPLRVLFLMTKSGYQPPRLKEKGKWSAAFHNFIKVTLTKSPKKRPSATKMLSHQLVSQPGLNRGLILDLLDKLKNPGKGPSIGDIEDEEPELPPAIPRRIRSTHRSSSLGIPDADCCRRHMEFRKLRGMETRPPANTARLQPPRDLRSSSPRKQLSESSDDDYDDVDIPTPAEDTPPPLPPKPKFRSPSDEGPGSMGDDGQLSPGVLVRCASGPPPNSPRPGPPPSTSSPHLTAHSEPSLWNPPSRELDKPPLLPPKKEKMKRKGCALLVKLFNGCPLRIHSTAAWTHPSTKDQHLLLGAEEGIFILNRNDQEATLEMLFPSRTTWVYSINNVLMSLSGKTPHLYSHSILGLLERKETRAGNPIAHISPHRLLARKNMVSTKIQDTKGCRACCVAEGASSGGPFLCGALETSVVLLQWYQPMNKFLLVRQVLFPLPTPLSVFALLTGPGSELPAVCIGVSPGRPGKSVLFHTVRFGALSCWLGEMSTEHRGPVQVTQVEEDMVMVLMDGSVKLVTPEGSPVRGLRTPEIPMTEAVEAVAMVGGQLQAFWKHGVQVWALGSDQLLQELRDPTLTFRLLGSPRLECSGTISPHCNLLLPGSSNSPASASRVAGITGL

SMILES: Cc1[nH]c(/C=C2\C(=O)Nc3ccc(F)cc32)c(C)c1C(=O)NCCCN1CCN(CC(=O)NCCCCCCCCNc2cccc3c2C(=O)N(C2CCC(=O)NC2=O)C3=O)CC1 (centres unmarked) [HC58-78, (Z)—N-(3-(4-(2-((8-((2-(2,6-dioxopiperidin-3-yl)-1,3-dioxoisoindolin-4-yl)amino)octyl)amino)-2-oxoethyl)piperazin-1-yl)propyl)-5-((5-fluoro-2-oxoindolin-3-ylidene)methyl)-2,4-dimethyl-1H-pyrrole-3-carboxamide]
- proliferation compared with the DMSO-treated counterpart (primary murine T cells [1]): proliferate much more quickly than the DMSO-treated counterpart
- IL-2 production (primary GFP+ Tregs): elevated IL-2 production
- IL-2 production compared with the DMSO-treated counterpart (primary murine T cells [2]): produced more IL-2 than the DMSO-treated counterpart
- IL-2 production by treated wild type Tregs (CD4+eGFP+ Tregs): produced IL-2 at level comparable to that produced by HPK1^−/− Tregs
- degradation of HPK1 protein in primary T cells compared with Jurkat T cells (HPK1 [3]): could degrade more HPK1 protein in primary T cells than in Jurkat T cells
- endogenous level of HPK1 (HPK1 [4]; Jurkat T cells, multiple day post exposure (FIG. 3)): could reduce the endogenous level of HPK1
- reducing HPK1 protein levels (HPK1 [4]; characterization of exemplary degraders (FIGS. 1-14)): especially effective in reducing HPK1 protein levels
- percentage of human PBMCs that express high level of IFNγ and TNFα (human PBMCs): significantly increased
